Assay results reported in paper PMC10184313, “Inhibition of Thiamine Diphosphate-Dependent Enzymes by Triazole-Based Thiamine Analogues” (ACS Medicinal Chemistry Letters, 2023).

Target: T1, porcine PDHc E1 (Sus scrofa, UniProt P29804)
T1 sequence (P29804 31-390): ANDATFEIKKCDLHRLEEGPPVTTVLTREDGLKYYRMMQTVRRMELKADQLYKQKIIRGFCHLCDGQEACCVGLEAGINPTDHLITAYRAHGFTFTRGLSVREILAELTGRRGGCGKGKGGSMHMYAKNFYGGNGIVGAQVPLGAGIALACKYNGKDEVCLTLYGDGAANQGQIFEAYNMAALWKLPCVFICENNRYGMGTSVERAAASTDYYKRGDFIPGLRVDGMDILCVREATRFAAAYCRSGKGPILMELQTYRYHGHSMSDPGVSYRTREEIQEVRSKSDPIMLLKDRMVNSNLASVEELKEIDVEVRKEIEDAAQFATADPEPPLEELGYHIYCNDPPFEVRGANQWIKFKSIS
Assay: PDHc E1 inhibitory activity assay (DCPIP reduction)
Format: biochemical
Details: [Compound] = 250 μM, [ThDP] = 50 μM
Method: Enzyme assays – Methods and Results S1
Ligand efficiencies – Calculations S3 […]
Enzyme assays (Methods and Results)
PDHc E1 inhibitory activity assay. Porcine PDHc E1 was purchased from Sigma. Its activity was […]
determined by monitoring 2,6-dichlorophenolindophenol (DCPIP) reduction at 600 nm using a […]
microplate reader (CLARIOstar) and conducted as described 1,2 with some modifications. The percentage inhibition of compounds against porcine PDHc E1 was assayed at a final concentration of 250 µM. The reaction buffer (50 mM KH 2PO4 and 1 mM MgCl 2, pH 7) contained 50 µM ThDP (or 125 µM in the competition assay), 0.25 mM DCPIP, and 2 mg/ml porcine PDHc E1. The reaction mixture […]
was preincubated at 37 °C for 30 min, then the reaction was initiated by adding pyruvate to a final […]
concentration of 50 mM. To determine the half-maximal inhibitory concentration (IC 50 ), ThDP […]
concentration was lowered to 10 µM, and inhibitor concentration was varied (0.4-200 µM). Specific […]
activity was calculated using the molar extinction coefficient of DCPIP, 21 mM -1 cm-1.3 The enzyme […]
IC50 values were calculated from non-linear regression curve fitting using GraphPad Prism.

SMILES	Inhibition (%) PDHc E1 [%]
Cc1ncc(Cn2cc(CCCCn3cc(-c4ccccc4)nn3)nn2)c(N)n1 [Compound 15c]	> 90
COc1ccccc1C(=O)NCCc1cn(Cc2cnc(C)nc2N)nn1 [Compound 22a]	83 ± 4
Cc1ncc(Cn2cc(CCCCO)nn2)c(N)n1 [Compound 9c]	57 ± 2
COc1ccc(-c2cn(CCc3cn(Cc4cnc(C)nc4N)nn3)nn2)cc1 [Compound 17a]	46 ± 4
Cc1ncc(Cn2cc(CCCNS(=O)(=O)C(F)(F)F)nn2)c(N)n1 [Compound 18b]	55 ± 2
Cc1ncc(Cn2cc(CCC(=O)NO)nn2)c(N)n1 [Compound 24a]	77 ± 3
COc1cccc(C(=O)NCCCc2cn(Cc3cnc(C)nc3N)nn2)c1 [Compound 21b]	61 ± 2
Cc1ncc(Cn2cc(CCOC(=O)c3cccc(-c4noc(C(F)(F)F)n4)c3)nn2)c(N)n1 [Compound 13a]	72 ± 2
Cc1ncc(Cn2cc(CCNC(=O)c3cccc(-c4noc(C(F)(F)F)n4)c3)nn2)c(N)n1 [Compound 19a]	48 ± 3
Cc1ncc(C[n+]2csc(CCO[P@@](=O)(O)OP(=O)(O)O)c2C)c(O)n1 [OxThDP 7b, oxythiamine diphosphate, reference compound]	> 90
Cc1ncc(Cn2cc(CCn3cc(-c4ccccc4)nn3)nn2)c(N)n1 [Compound 15a]	45 ± 3
Cc1ncc(Cn2cc(CCCCC(=O)Nc3ccccc3N)nn2)c(N)n1 [Compound 26c]	64 ± 4
Cc1ncc(Cn2cc(CCOC(=O)c3cccc(C#N)c3)nn2)c(N)n1 [Compound 14a]	71 ± 4

Same assay, conditions: increased ThDP: [Compound] = 250 μM, [ThDP] = 125 μM

SMILES	Inhibition (%) PDHc E1 [%]
Cc1ncc(Cn2cc(CCCCn3cc(-c4ccccc4)nn3)nn2)c(N)n1 [Compound 15c]	75 ± 4
COc1ccc(-c2cn(CCc3cn(Cc4cnc(C)nc4N)nn3)nn2)cc1 [Compound 17a]	<20
Cc1ncc(C[n+]2csc(CCO[P@@](=O)(O)OP(=O)(O)O)c2C)c(O)n1 [OxThDP 7b, oxythiamine diphosphate, reference compound]	75 ± 3
Cc1ncc(Cn2cc(CCn3cc(-c4ccccc4)nn3)nn2)c(N)n1 [Compound 15a]	<20

Target: T2, S. cerevisiae PDC (Saccharomyces cerevisiae, UniProt P06169)
T2 construct: purchased Sigma
T2 sequence (P06169 2-563 limits assumed): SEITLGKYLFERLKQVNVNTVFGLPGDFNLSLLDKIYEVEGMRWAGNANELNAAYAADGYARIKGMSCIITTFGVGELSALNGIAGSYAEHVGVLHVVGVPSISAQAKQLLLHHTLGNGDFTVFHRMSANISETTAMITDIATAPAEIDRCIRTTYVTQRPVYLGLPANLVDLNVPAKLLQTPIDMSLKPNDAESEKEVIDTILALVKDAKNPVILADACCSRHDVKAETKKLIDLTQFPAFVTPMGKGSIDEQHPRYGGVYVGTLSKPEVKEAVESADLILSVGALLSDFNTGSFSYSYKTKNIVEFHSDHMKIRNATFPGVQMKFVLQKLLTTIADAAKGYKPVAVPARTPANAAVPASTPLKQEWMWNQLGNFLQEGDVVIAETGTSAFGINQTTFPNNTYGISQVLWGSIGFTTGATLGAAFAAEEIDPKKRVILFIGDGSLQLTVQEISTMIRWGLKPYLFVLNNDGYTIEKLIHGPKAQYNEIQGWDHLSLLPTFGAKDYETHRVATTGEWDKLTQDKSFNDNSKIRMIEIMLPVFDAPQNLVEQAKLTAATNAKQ
Assay: S. cerevisiae PDC inhibitory activity assay (DCPIP reduction)
Format: biochemical
Details: [Compound] = 1.5 mM, [ThDP] = 0.3 mM; compounds insufficiently soluble were excluded
Method: S. cerevisiae PDC inhibitory activity assay. S. cerevisiae PDC was purchased from Sigma. Its activity was determined by monitoring DCPIP reduction at 600 nm using a microplate reader (CLARIOstar) and conducted as described 1,2 with some modifications. The percentage inhibition of compounds was assayed at a final concentration of 1500 µM. The reaction buffer (50 mM KH 2PO4 and 1 mM MgCl 2, pH 7) contained 300 µM ThDP (or 750 µM in the competition assay), 0.27 mM DCPIP, and 0.15 mg/ml S. cerevisiae PDC. The reaction mixture was preincubated at 37 °C for 60 min, then reaction was initiated by adding pyruvate to a final concentration of 70 mM. Specific activity was calculated using the molar extinction coefficient of DCPIP, 21 mM -1 cm -1.3 […]

SMILES	Inhibition (%) Yeast PDC
Cc1ncc(Cn2cc(CCCCn3cc(-c4ccccc4)nn3)nn2)c(N)n1 [Compound 15c]	Insoluble
COc1ccc(-c2cn(CCc3cn(Cc4cnc(C)nc4N)nn3)nn2)cc1 [Compound 17a]	Insoluble
Cc1ncc(Cn2cc(CCOC(=O)c3cccc(-c4noc(C(F)(F)F)n4)c3)nn2)c(N)n1 [Compound 13a]	Insoluble
Cc1ncc(Cn2cc(CCNC(=O)c3cccc(-c4noc(C(F)(F)F)n4)c3)nn2)c(N)n1 [Compound 19a]	Insoluble
Cc1ncc(Cn2cc(CCn3cc(-c4ccccc4)nn3)nn2)c(N)n1 [Compound 15a]	Insoluble
Cc1ncc(Cn2cc(CCOC(=O)c3cccc(C#N)c3)nn2)c(N)n1 [Compound 14a]	Insoluble

Same assay, conditions: [Compound] = 1.5 mM, [ThDP] = 0.3 mM; compounds insufficiently soluble were excluded; read-out: Inhibition (%) Yeast PDC

SMILES	inhibition at 1500 µM [%]
COc1ccccc1C(=O)NCCc1cn(Cc2cnc(C)nc2N)nn1 [Compound 22a]	61 ± 4
Cc1ncc(Cn2cc(CCCCO)nn2)c(N)n1 [Compound 9c]	33 ± 4
Cc1ncc(Cn2cc(CCCNS(=O)(=O)C(F)(F)F)nn2)c(N)n1 [Compound 18b]	37 ± 4
Cc1ncc(Cn2cc(CCC(=O)NO)nn2)c(N)n1 [Compound 24a]	41 ± 3
COc1cccc(C(=O)NCCCc2cn(Cc3cnc(C)nc3N)nn2)c1 [Compound 21b]	38 ± 5
Cc1ncc(C[n+]2csc(CCO[P@@](=O)(O)OP(=O)(O)O)c2C)c(O)n1 [OxThDP 7b, oxythiamine diphosphate, reference compound]	81 ± 3
Cc1ncc(Cn2cc(CCCCC(=O)Nc3ccccc3N)nn2)c(N)n1 [Compound 26c]	< 20

Same assay, conditions: increased ThDP: [Compound] = 1500 μM, [ThDP] = 750 μM; compounds insufficiently soluble were excluded

SMILES	Inhibition (%) Yeast PDC
Cc1ncc(Cn2cc(CCCCn3cc(-c4ccccc4)nn3)nn2)c(N)n1 [Compound 15c]	Insoluble
COc1ccc(-c2cn(CCc3cn(Cc4cnc(C)nc4N)nn3)nn2)cc1 [Compound 17a]	Insoluble
Cc1ncc(Cn2cc(CCn3cc(-c4ccccc4)nn3)nn2)c(N)n1 [Compound 15a]	Insoluble

Same assay, conditions: increased ThDP: [Compound] = 1500 μM, [ThDP] = 750 μM; compounds insufficiently soluble were excluded; read-out: Inhibition (%) Yeast PDC

SMILES	inhibition at 1500 µM [%]
Cc1ncc(C[n+]2csc(CCO[P@@](=O)(O)OP(=O)(O)O)c2C)c(O)n1 [OxThDP 7b, oxythiamine diphosphate, reference compound]	63 ± 3

Target: T3, A. viridans PO (Aerococcus viridans, UniProt A9X9K8)
T3 sequence (A9X9K8 1-592): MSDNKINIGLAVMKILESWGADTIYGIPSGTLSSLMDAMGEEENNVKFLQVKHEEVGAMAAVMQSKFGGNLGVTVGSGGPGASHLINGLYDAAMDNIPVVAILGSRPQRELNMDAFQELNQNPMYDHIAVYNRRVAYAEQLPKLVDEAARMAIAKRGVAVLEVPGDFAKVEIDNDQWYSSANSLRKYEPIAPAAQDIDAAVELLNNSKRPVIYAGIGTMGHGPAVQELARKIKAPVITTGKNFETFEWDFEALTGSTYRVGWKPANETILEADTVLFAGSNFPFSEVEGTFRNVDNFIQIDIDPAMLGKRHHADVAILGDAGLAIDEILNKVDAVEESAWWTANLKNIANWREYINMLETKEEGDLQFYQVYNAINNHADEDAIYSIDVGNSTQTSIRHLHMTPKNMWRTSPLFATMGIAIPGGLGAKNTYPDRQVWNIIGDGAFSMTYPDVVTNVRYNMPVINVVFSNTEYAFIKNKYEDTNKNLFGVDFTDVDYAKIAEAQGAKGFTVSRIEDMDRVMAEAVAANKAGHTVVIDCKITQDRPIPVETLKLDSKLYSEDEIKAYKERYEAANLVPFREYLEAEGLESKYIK
Assay: A. viridans PO inhibitory activity assay (quinoneimine dye)
Format: biochemical
Details: [Compound] = 250 μM, [ThDP] = 50 μM
Method: A. viridans PO inhibitory activity assay. A. viridans PO and horseradish peroxidase were purchased from Sigma. A. viridans PO activity was determined by monitoring appearance of quinoneimine dye at 550 nm using a microplate reader (CLARIOstar) and conducted as described 1 with some modifications.
The percentage inhibition of compounds against A. viridans PO was assayed at a final concentration of 250 µM. The reaction buffer (50 mM KH 2PO4 and 10 mM MgCl 2, pH 5.9) contained 50 µM ThDP (or 125 µM in the competition assay), 10 µM flavin adenine dinucleotide (FAD), 0.15% 4-Aminoantipyrine, 0.3% N-Ethyl-N-(2-hydroxy-3-sulfopropyl)-m-toluidine (EHSPT), 50 µg/mL horseradish peroxidase and 0.35 U/mL A. viridans PO. The reaction mixture was preincubated at 37 °C for 30 min, then reaction was initiated by adding pyruvate to a final concentration of 50 mM. To determine the IC 50, inhibitor concentration was varied (2-1000 µM) with ThDP concentration at 50 µM. 1 unit of PO activity is defined as 1 μmol of hydrogen peroxide produced per minute. The enzyme IC 50 values were calculated as described for the PDHc E1 assay. […]

SMILES	Inhibition (%) PO [%]
Cc1ncc(Cn2cc(CCCCn3cc(-c4ccccc4)nn3)nn2)c(N)n1 [Compound 15c]	< 20
COc1ccccc1C(=O)NCCc1cn(Cc2cnc(C)nc2N)nn1 [Compound 22a]	< 20
Cc1ncc(Cn2cc(CCCCO)nn2)c(N)n1 [Compound 9c]	< 20
COc1ccc(-c2cn(CCc3cn(Cc4cnc(C)nc4N)nn3)nn2)cc1 [Compound 17a]	< 20
Cc1ncc(Cn2cc(CCCNS(=O)(=O)C(F)(F)F)nn2)c(N)n1 [Compound 18b]	< 20
Cc1ncc(Cn2cc(CCC(=O)NO)nn2)c(N)n1 [Compound 24a]	< 20
COc1cccc(C(=O)NCCCc2cn(Cc3cnc(C)nc3N)nn2)c1 [Compound 21b]	< 20
Cc1ncc(Cn2cc(CCOC(=O)c3cccc(-c4noc(C(F)(F)F)n4)c3)nn2)c(N)n1 [Compound 13a]	< 20
Cc1ncc(Cn2cc(CCNC(=O)c3cccc(-c4noc(C(F)(F)F)n4)c3)nn2)c(N)n1 [Compound 19a]	< 20
Cc1ncc(C[n+]2csc(CCO[P@@](=O)(O)OP(=O)(O)O)c2C)c(O)n1 [OxThDP 7b, oxythiamine diphosphate, reference compound]	48 ± 4
Cc1ncc(Cn2cc(CCn3cc(-c4ccccc4)nn3)nn2)c(N)n1 [Compound 15a]	22 ± 2
Cc1ncc(Cn2cc(CCCCC(=O)Nc3ccccc3N)nn2)c(N)n1 [Compound 26c]	< 20
Cc1ncc(Cn2cc(CCOC(=O)c3cccc(C#N)c3)nn2)c(N)n1 [Compound 14a]	< 20

Same assay, conditions: increased ThDP: [Compound] = 250 μM, [ThDP] = 125 μM

SMILES	Inhibition (%) PO [%]
Cc1ncc(Cn2cc(CCCCn3cc(-c4ccccc4)nn3)nn2)c(N)n1 [Compound 15c]	<20
COc1ccc(-c2cn(CCc3cn(Cc4cnc(C)nc4N)nn3)nn2)cc1 [Compound 17a]	<20
Cc1ncc(C[n+]2csc(CCO[P@@](=O)(O)OP(=O)(O)O)c2C)c(O)n1 [OxThDP 7b, oxythiamine diphosphate, reference compound]	32 ± 5
Cc1ncc(Cn2cc(CCn3cc(-c4ccccc4)nn3)nn2)c(N)n1 [Compound 15a]	<20
